Literature values in patent US7816544B2, “Synthesis of rocaglamide natural products via photochemical generation of oxidopyrylium species” (Trustees of Boston University, priority 2004, dated 2010).

How the values were obtained:
[1] = tested on: NF-κB; conditions: different mouse and human T cell lines; B. Baumann et al., J. Biol. Chem., 2002
[2] = tested on: human cancer cells; conditions: compared with Taxol; B. Y. Hwang et al., J. Org. Chem., 2004

| SMILES | inhibition of NF-κB activity / NF-κB-induced gene activation [1] | cytotoxic activity against human cancer cells [2] |
| --- | --- | --- |
| COc1ccc([C@@]23Oc4cc(OC)cc(OC)c4[C@]2(O)[C@H](O)[C@H](C(=O)N(C)C)[C@H]3c2ccccc2)cc1 [Rocaglamide] | among the strongest inhibitors of NF-κB-induced gene activation known so far |  |
| COC(=O)[C@H]1[C@@H](O)[C@@]2(O)c3c(OC)cc(O[C@@H]4O[C@@H]([C@H](O)CO)CO[C@H]4OC)cc3O[C@@]2(c2ccc(OC)cc2)[C@@H]1c1ccccc1 [silvestrol 2, silvestrol] |  | comparable to the anticancer drug Taxol |
